Experimental findings from patent US11702427B2 (priority 2018, dated 2023) are described below.

SMILES strings stand for the structures.

What is called EC50 is the concentration that produces a half-maximal response.

The first assay deals with HBsAg. Kind of assay: HBsAg assay: inhibition of HBsAg in HepG2.2.15 cells (CLIA immunoassay of supernatant). Format: cell-based, hepatitis B virus (HBV). The settings on record: Hepatitis B virus, HepG2.2.15, 144 h, read-out: sAg EC50, HepG2.2.15 cells; supernatant collected at day 6 after exposure; HBsAg chemiluminescence immunoassay. Here is the method: Inhibition of HBsAg was determined in HepG2.2.15 cells. Cells were maintained in culture medium containing 10% fetal calf serum, […], Glutamine, penicillin/streptomycin. Cells were seeded in 96-well collagen-coated plate at a density of 30,000 cells/well. Serially diluted compounds were added to cells next day at the final DMSO concentration of 0.5%. Cells were incubated with compounds for 2-3 days, after which medium was removed. Fresh medium containing compounds was added to cells for additional 3-4 days. At day 6 after exposure of compounds, supernatant was collected, the HBsAg immunoassay (microplate-based chemiluminescence immunoassay kits, CLIA, Autobio Diagnosics Co., Zhengzhou, China, Catalog #CL0310-2) was used to determine the level of HBsAg according to manufactory instruction. Dose-response curves were generated and the EC50 value (effective concentrations that achieved 50% inhibitory effect) were determined using XLfit software. In addition, cells can be seeded at a density of 5,000 cells/well for determination of cell viability in the presence and absence of compounds by using CellTiter-Glo reagent (Promega). Tables 1-3 show EC50 values obtained by the HBsAg assay for selected compounds.
Consider `COCCCOc1cc2c(nc1NCCOC)-c1[nH]c(=O)c(C(=O)NCCOC)c(O)c1C(C(C)C)C2` (stereo not drawn) [Example 52, 4-Hydroxy-5-isopropyl-N-(2-methoxyethyl)-9-((2-methoxyethyl)amino)-8-(3-methoxypropoxy)-2-oxo-1,2,5,6-tetrahydro-1,10-phenanthroline-3-carboxamide], for which the EC50 amounted to 13000 nM.
On the same count and under the same terms, the same measure for `COCCCOc1cc2c(cc1OC)-c1[nH]c(=O)c(C(=O)O)c(OCCN(C)C)c1C(C(C)C)C2` (stereo not drawn) [Example 89, 4-(2-(Dimethylamino)ethoxy)-5-isopropyl-9-methoxy-8-(3-methoxypropoxy)-2-oxo-1,2,5,6-tetrahydrobenzo[h]quinoline-3-carboxylic acid]: 4600 nM.
With `COCCCOc1cc2c(nc1CCOC)-c1[nH]c(=O)c(C(=O)O)c(O)c1C(C(C)C)CO2` (stereo not drawn) [Example 84, 8-Hydroxy-7-isopropyl-2-(2-methoxyethyl)-3-(3-methoxypropoxy)-10-oxo-6,7,10,11-tetrahydrooxepino[3,2-b:4,5-b′]dipyridine-9-carboxylic acid], the EC50 came out at 1200 nM.
As to `COCCCOc1cc2c(cc1OC)-c1[nH]c(=O)c(C(=O)O)c(Cl)c1C(C(C)C)C2` (stereo not drawn) [Example 20, 4-Chloro-5-isopropyl-9-methoxy-8-(3-methoxypropoxy)-2-oxo-1,2,5,6-tetrahydrobenzo[h]quinoline-3-carboxylic acid], the 50% effective concentration (EC50) came to 3800 nM.
On the same count and under the same terms, as for `COCCCOc1cc2c(cc1Cl)-c1[nH]c(=O)c(C(=O)O)cc1C(C)(C(C)C)C2` (stereo not drawn) [Example 9, 9-Chloro-5-isopropyl-8-(3-methoxypropoxy)-5-methyl-2-oxo-1,6-dihydrobenzo[h]quinoline-3-carboxylic acid], the figure is 31 nM; as for `COCCCOc1cc2c(nc1Cl)-c1[nH]c(=O)c(C(=O)O)c(O)c1C(C(C)C)CO2` (stereo not drawn) [Example 74, 2-Chloro-8-hydroxy-7-isopropyl-3-(3-methoxypropoxy)-10-oxo-6,7,10,11-tetrahydrooxepino[3,2-b:4,5-b′]dipyridine-9-carboxylic acid], 40 nM; as for `CNc1nc2c(cc1OCCCOC)CC(C(C)C)c1cc(C(=O)O)c(=O)[nH]c1-2` (stereo not drawn) [Example 55, 5-Isopropyl-8-(3-methoxypropoxy)-9-(methylamino)-2-oxo-1,2,5,6-tetrahydro-1,10-phenanthroline-3-carboxylicacid], 2 nM.
Still for that read-out and setting: as for `COCCCOc1cc2c(nc1N(C)C)-c1[nH]c(=O)c(C(=O)O)c(O)c1C(C(C)C)C2` (stereo not drawn) [Example 54, 9-(Dimethylamino)-4-hydroxy-5-isopropyl-8-(3-methoxypropoxy)-2-oxo-1,2,5,6-tetrahydro-1,10-phenanthroline-3-carboxylicacid], the figure is 10 nM; as for `COCCCOc1cc2c(cc1OC)-c1[nH]c(=O)c(C(=O)O)c(OCCOC)c1C(C(C)C)C2` (stereo not drawn) [Example 88, 5-Isopropyl-9-methoxy-4-(2-methoxyethoxy)-8-(3-methoxypropoxy)-2-oxo-1,2,5,6-tetrahydrobenzo[h]quinoline-3-carboxylic acid], 4700 nM; as for `COCCCOc1cc2c(cc1C1CCOCC1)-c1[nH]c(=O)c(C(=O)O)c(O)c1[C@H](C(C)C)CO2` [Example 94, (S)-4-Hydroxy-5-isopropyl-9-(3-methoxypropoxy)-2-oxo-10-(tetrahydro-2H-pyran-4-yl)-1,2,5,6-tetrahydrobenzo[2,3]oxepino[4,5-b]pyridine-3-carboxylic acid], 730 nM.
Same read-out and setting: the same measure for `COCCCOc1cc2c(nc1C1CC1)-c1[nH]c(=O)c(C(=O)O)c(O)c1C(C(C)C)CO2` (stereo not drawn) [Example 93, 2-Cyclopropyl-8-hydroxy-7-isopropyl-3-(3-methoxypropoxy)-10-oxo-6,7,10,11-tetrahydrooxepino[3,2-b:4,5-b′]dipyridine-9-carboxylic acid]: 120 nM.
`COCCCOc1cc2c(nc1OC)-c1[nH]c(=O)c(C(=O)O)c(O)c1C(C(C)(C)C)C2` (stereo not drawn) [Example 36, 5-(tert-Butyl)-4-hydroxy-9-methoxy-8-(3-methoxypropoxy)-2-oxo-1,2,5,6-tetrahydro-1,10-phenanthroline-3-carboxylicacid]: the EC50 worked out at 1 nM.
On the same count and under the same terms, the same measure for `COCCCOc1cc2c(cc1OC)-c1[nH]c(=O)c(C(=O)O)c(O)c1C(C(C)C)C2` (stereo not drawn) [Example 13, 4-Hydroxy-5-isopropyl-9-methoxy-8-(3-methoxypropoxy)-2-oxo-1,2,5,6-tetrahydrobenzo[h]quinoline-3-carboxylicacid]: 6 nM; for `COCCCOc1cc2c(cc1OC)-c1nc(Cl)c(C(=O)O)cc1C(C(C)C)C2` (stereo not drawn) [Example 23, 2-Chloro-5-isopropyl-9-methoxy-8-(3-methoxypropoxy)-5,6-dihydrobenzo[h]quinoline-3-carboxylic acid]: 240 nM; for `COCCCOc1cc2c(cc1OC)-c1[nH]c(=O)c(C(N)=O)c(O)c1C(C(C)C)C2` (stereo not drawn) [Example 58, 4-Hydroxy-5-isopropyl-9-methoxy-8-(3-methoxypropoxy)-2-oxo-1,2,5,6-tetrahydrobenzo[h]quinoline-3-carboxamide]: 20 nM.
Same read-out and setting: as for `COCCCOc1cc2c(cc1OC)-c1c(c(O)c(C(=O)O)c(=O)n1Cc1ccccc1)C(C(C)C)C2` (stereo not drawn) [Example 18, 1-Benzyl-4-hydroxy-5-isopropyl-9-methoxy-8-(3-methoxypropoxy)-2-oxo-1,2,5,6-tetrahydrobenzo[h]quinoline-3-carboxylic acid], the figure is 15000 nM.

The assay is the same for the next values; noted with them: read-out: sAg EC50; HepG2.2.15 cells; supernatant collected at day 6 after exposure; HBsAg chemiluminescence immunoassay.
As to `COCCCOc1cc2c(cc1Cl)-c1[nH]c(=O)c(C(=O)O)c(O)c1C(C)(C(C)C)C2` (single isomer, unassigned) [Example 15, 9-Chloro-4-hydroxy-5-isopropyl-8-(3-methoxypropoxy)-5-methyl-2-oxo-1,2,5,6-tetrahydrobenzo[h]quinoline-3-carboxylic acid], the EC50 was found to be 18 nM.
On the same count and under the same terms, as for `COCCCOc1cc2c(cc1OC)-c1[nH]c(=O)c(C(=O)O)c(O)c1C(C)(C(C)C)C2` (single isomer, unassigned) [Example 31, 4-Hydroxy-5-isopropyl-9-methoxy-8-(3-methoxypropoxy)-5-methyl-2-oxo-1,2,5,6-tetrahydrobenzo[h]quinoline-3-carboxylic acid], the figure is 27 nM; as for `COCCCOc1cc2c(nc1OC)-c1[nH]c(=O)c(C(=O)O)cc1C(C(C)(C)C)C2` (single isomer, unassigned) [Example 47, 5-(tert-Butyl)-9-methoxy-8-(3-methoxypropoxy)-2-oxo-1,2,5,6-tetrahydro-1,10-phenanthroline-3-carboxylic acid], 1 nM.
On the same count and under the same terms, as for `COCCCOc1cc2c(cc1Cl)-c1[nH]c(=O)c(C(=O)O)cc1C(C)(C(C)C)C2` (single isomer, unassigned) [Example 11, 9-Chloro-5-isopropyl-8-(3-methoxypropoxy)-5-methyl-2-oxo-1,6-dihydrobenzo[h]quinoline-3-carboxylic acid], the figure is 250 nM; as for `CCc1nc2c(cc1OCCCOC)OCC(C(C)(C)C)c1c-2[nH]c(=O)c(C(=O)O)c1O` (single isomer, unassigned) [Example 80, 7-(tert-Butyl)-2-ethyl-8-hydroxy-3-(3-methoxypropoxy)-10-oxo-6,7,10,11-tetrahydrooxepino[3,2-b:4,5-b′]dipyridine-9-carboxylic acid], 7000 nM; as for `COCCCOc1cc2c(nc1Cl)-c1[nH]c(=O)c(C(=O)O)c(O)c1C(C(C)(C)C)CO2` (single isomer, unassigned) [Example 78, 7-(tert-Butyl)-2-chloro-8-hydroxy-3-(3-methoxypropoxy)-10-oxo-6,7,10,11-tetrahydrooxepino[3,2-b:4,5-b′]dipyridine-9-carboxylicacid], 6000 nM.
On to `COCCCOc1cc2c(cc1OC)-c1[nH]c(=O)c(C(=O)O)cc1C(C(C)C)C2` (single isomer, unassigned) [Example 2, 5-Isopropyl-9-methoxy-8-(3-methoxypropoxy)-2-oxo-1,2,5,6-tetrahydrobenzo[h]quinoline-3-carboxylic acid], for which the EC50 was 11 nM.
As for `COCCCOc1cc2c(nc1Cl)-c1[nH]c(=O)c(C(=O)O)c(O)c1C(C(C)C)C2` (single isomer, unassigned) [Example 27, 9-Chloro-4-hydroxy-5-isopropyl-8-(3-methoxypropoxy)-2-oxo-1,2,5,6-tetrahydro-1,10-phenanthroline-3-carboxylic acid], the EC50 amounted to 2 nM.
On the same count and under the same terms, as for `COCCCOc1cc2c(nc1Cl)-c1[nH]c(=O)c(C(=O)O)c(O)c1C(C(C)C)C2` (single isomer, unassigned) [Example 28, 9-Chloro-4-hydroxy-5-isopropyl-8-(3-methoxypropoxy)-2-oxo-1,2,5,6-tetrahydro-1,10-phenanthroline-3-carboxylic acid], the figure is 43 nM.
The same measure, in the same setting: as for `COCCCOc1cc2c(cc1OC)-c1[nH]c(=O)c(C(=O)O)cc1C(C)(C(C)C)C2` (single isomer, unassigned) [Example 7, 5-Isopropyl-9-methoxy-8-(3-methoxypropoxy)-5-methyl-2-oxo-1,6-dihydrobenzo[h]quinoline-3-carboxylic acid], the figure is 22 nM; as for `COCCCOc1cc2c(nc1OC)-c1[nH]c(=O)c(C(=O)O)cc1C(C(C)C)C2` (single isomer, unassigned) [Example 45, 5-Isopropyl-9-methoxy-8-(3-methoxypropoxy)-2-oxo-1,2,5,6-tetrahydro-1,10-phenanthroline-3-carboxylic acid], 16 nM.
